Paper PMC6099588
pIC50: −log10 of the molar value.

Tests used:
[1] = tested on: HCVcc (Jc1/JFH genotype 2a); assay type: cell-based, hepatitis C virus
in vitro = conditions: human, CC50, Huh-7.5 cells, MTS assay, 72 h
[2] = MTS cytotoxicity alongside the Huh7-J20 SEAP assay; conditions: human, Huh7-J20 cells
influenza A virus = conditions: cited from earlier work; for antiviral activity against influenza A virus: among compounds 1–9
HCVpp [3] = conditions: 50 μM, added to HEK-293T producer cells; luciferase in infected Huh-7.5 cells
HCV E2 glycoprotein = assay: Western blot of E2 glycoprotein accumulation in transfected HEK293T cells; conditions: anti-E2 MAb AP33, 48 h post transfection
[4] = tested on: HCV replication (Huh7-J17 replicon cell line); assay: HCV replicon luciferase assay in Huh7-J17 cells; conditions: 72 h; for effect on HCV replication process (luciferase activity): Huh7-J17 replicon cells, different doses
HCVcc = HCVcc dose-response SEAP reporter assay in Huh7-J20 cells; conditions: for pIC50: Hepatitis C virus, Huh7-J20, 72 h; for selectivity index (SI), CC50/IC50 ratio: Huh7-J20 cells, HCVcc
[5] = tested on: classical swine fever virus; conditions: cited from earlier work
HCVpp [6] = assay: microbe, parasite or virus in culture; conditions: Hepatitis C virus, read-out: inhibition of infection (HCVpp)

For `CC(=O)O[C@H]1[C@H](C)O[C@H](OC[C@H]2O[C@@H](n3ccc(=O)[nH]c3=O)[C@@H]3OC(C)(C)O[C@@H]32)C[C@@H]1O[Si](C)(C)C(C)(C)C` [Compound 1], the “anti-HCV activity (reduction of pseudoplaques)” value [1] was “no obvious anti-HCV activity” and the CC50 (in vitro) was 85 µM.
In the case of `CC(=O)O[C@H]1[C@H](C)O[C@H](OC[C@H]2O[C@@H](n3ccc(=O)n(C(=O)c4ccccc4)c3=O)[C@@H]3OC(C)(C)O[C@@H]32)C[C@@H]1O[Si](C)(C)C(C)(C)C` [Compound 2], the “anti-HCV activity (reduction of pseudoplaques)” value [1] is given as “high antiviral activity”, the CC50 [2] is given as 113 µM and the “antiviral activity against influenza A virus” value (influenza A virus) is given as “most active”. The “reduction of HCVpp production and/or infectivity relative to DMSO control” value (HCVpp [3]) was “about 80%”, the “accumulation of E2 glycoprotein in HEK293T cells” value (HCV E2 glycoprotein) was “no change in the accumulation” and the CC50 (in vitro) was 119 µM. For the same compound, the “effect on HCV replication process (luciferase activity)” value [4] was “no effect on HCV replication process”, the pIC50 (HCVcc) was 5.05 and the “selectivity index (SI), CC50/IC50 ratio” value (HCVcc) was 12.7.
With `CC1(C)O[C@@H]2[C@H](O1)[C@@H](CO[C@@H]1C[C@@H](OCc3ccccc3)[C@H](OCc3ccccc3)[C@@H](COCc3ccccc3)O1)O[C@H]2n1ccc(=O)[nH]c1=O` [Compound 3] the “anti-HCV activity (reduction of pseudoplaques)” value [1] was “minor anti-HCV activity” and the CC50 (in vitro) was 89 µM.
For `CC1(C)O[C@@H]2[C@H](O1)[C@@H](CO[C@@H]1C[C@@H](OCc3ccccc3)[C@H](OCc3ccccc3)[C@@H](COCc3ccccc3)O1)O[C@H]2n1ccc(=O)n(C(=O)c2ccccc2)c1=O` [Compound 4], the “anti-HCV activity (reduction of pseudoplaques)” value [1] is listed as “high antiviral activity”, the CC50 [2] is listed as 142 µM and the “antiviral activity against influenza A virus” value (influenza A virus) is listed as “most active”. The “reduction of HCVpp production and/or infectivity relative to DMSO control” value (HCVpp [3]) was “about 80%”, the “accumulation of E2 glycoprotein in HEK293T cells” value (HCV E2 glycoprotein) was “no change in the accumulation” and the CC50 (in vitro) was 151 µM. For the same compound, the “effect on HCV replication process (luciferase activity)” value [4] was “no effect on HCV replication process”, the pIC50 (HCVcc) was 5.68 and the “selectivity index (SI), CC50/IC50 ratio” value (HCVcc) was 67.6.
In the case of `CC1(C)O[C@@H]2[C@H](O1)[C@@H](CO[C@@H]1C[C@@H](OCc3ccccc3)[C@H](OCc3ccccc3)[C@@H](CO[Si](C)(C)C(C)(C)C)O1)O[C@H]2n1ccc(=O)[nH]c1=O` [Compound 5], the “anti-HCV activity (reduction of pseudoplaques)” value [1] was “no obvious anti-HCV activity” and the CC50 (in vitro) was 83 µM.
With `CC(=O)OC[C@H]1O[C@H](OC[C@H]2O[C@@H](n3ccc(=O)[nH]c3=O)[C@@H]3OC(C)(C)O[C@@H]32)C[C@@H](OC(C)=O)[C@@H]1OC(C)=O` [Compound 6] the “anti-HCV activity (reduction of pseudoplaques)” value [1] was “no obvious anti-HCV activity” and the CC50 (in vitro) was 210 µM.
For `CC(=O)OC[C@H]1O[C@H](OC[C@H]2O[C@@H](n3ccc(=O)n(Cc4ccccc4)c3=O)[C@@H]3OC(C)(C)O[C@@H]32)C[C@@H](OC(C)=O)[C@@H]1OC(C)=O` [Compound 8], the “anti-HCV activity (reduction of pseudoplaques)” value [1] was “minor anti-HCV activity” and the CC50 (in vitro) was 223 µM.
In the case of `O=c1ccn([C@@H]2O[C@H](CO[C@@H]3C[C@@H](O)[C@H](O)[C@@H](CO)O3)[C@@H](O)[C@H]2O)c(=O)[nH]1` [Compound 9], the “anti-HCV activity (reduction of pseudoplaques)” value [1] was “minor anti-HCV activity” and the CC50 (in vitro) was 245 µM.
In the case of `CC1(C)O[C@@H]2[C@H](O1)[C@@H](CO[C@@H]1C[C@@H](OCc3ccccc3)[C@H](OCc3ccccc3)[C@@H](CO[Si](C)(C)C(C)(C)C)O1)O[C@H]2n1ccc(=O)n(C(=O)c2ccccc2)c1=O` [IW3], the “ability to inhibit classical swine fever virus” value [5] is given as “most active” and the “ability to inhibit influenza A virus” value (influenza A virus) is given as “most active”.
For `CC1(C)O[C@@H]2[C@H](O1)[C@@H](CO[C@@H]1C[C@@H](OCc3ccccc3)[C@H](OCc3ccccc3)[C@@H](CO)O1)O[C@H]2n1ccc(=O)n(C(=O)c2ccccc2)c1=O` [IW7], the “ability to inhibit classical swine fever virus” value [5] is given as “most active” and the “ability to inhibit influenza A virus” value (influenza A virus) is given as “most active”.
In the case of `CC(C)OC(=O)[C@H](C)N[P@](=O)(OC[C@H]1O[C@@H](n2ccc(=O)[nH]c2=O)[C@](C)(F)[C@@H]1O)Oc1ccccc1` [Sofosbuvir, reference compound], the pIC50 ([4]; Hepatitis C virus) was 7.55, the pIC50 (HCVcc) was 6.59 and the “selectivity index (SI), CC50/IC50 ratio” value (HCVcc) was “about 120”.
`CC(=O)N[C@H]1[C@@H](O[C@@H]2O[C@H](C[C@@H](O)[C@H]3O[C@@H](n4ccc(=O)[nH]c4=O)[C@H](O)[C@@H]3O)[C@H](O)[C@H](O)[C@H]2NC(=O)/C=C/CCCCCCCCCC(C)C)O[C@H](CO)[C@@H](O)[C@@H]1O` [Tunicamycin] gave an inhibition at 5 µM (HCVpp [6]) greater than 80%.
